Columns and labels:
Format in all cases: in vivo
[1] = test system: Thrips tabaci (Onion Thrips); assay: Thrips tabaci (onion thrips) feeding/contact activity; conditions: 144 h, mixed ages, 6 days after infestation
Description: Thrips tabaci (Onion Thrips) Feeding/Contact Activity
Sunflower leaf discs were placed on agar in 24-well microtiter plates and sprayed with aqueous test solutions prepared from 10′000 ppm DMSO stock solutions. After drying the leaf discs were infested with a thrips population of mixed ages. The samples were assessed for mortality 6 days after infestation.

[2] = test system: Myzus persicae (Green Peach Aphid); assay: Myzus persicae (green peach aphid) feeding/contact activity; conditions: 144 h, mixed ages, 6 days after infestation
Description: Myzus persicae (Green Peach Aphid): Feeding/Contact Activity
Sunflower leaf discs were placed onto agar in a 24-well microtiter plate and sprayed with aqueous test solutions prepared from 10′000 ppm DMSO stock solutions. After drying, the leaf discs were infested with an aphid population of mixed ages. The samples were assessed for mortality 6 days after infestation.

[3] = test system: Euschistus heros (Neotropical Brown Stink Bug); assay: Euschistus heros (neotropical brown stink bug) on soybean leaves, spray; conditions: 120 h, N2 nymphs, 5 days after infestation, read-out: effect in at least one of the two categories (mortality or growth inhibition)
Description: Euschistus heros(Neotropical Brown Stink Bug) Soybean leaves on agar in 24-well microtiter plates were sprayed with aqueous test solutions prepared from 10′000 ppm DMSO stock solutions. After drying the leaves were infested with N2 nymphs. The samples were assessed for mortality and growth inhibition in comparison to untreated samples 5 days after infestation.

[4] = test system: Diabrotica balteata (Corn Root Worm); assay: Diabrotica balteata (corn root worm) on maize sprouts, spray; conditions: 96 h, L2 larvae, 4 days after infestation, read-out: effect in at least one of the two categories (mortality or growth inhibition)
Description: Diabrotica balteata (Corn Root Worm)
Maize sprouts placed onto an agar layer in 24-well microtiter plates were treated with aqueous test solutions prepared from 10′000 ppm DMSO stock solutions by spraying. After drying, the plates were infested with L2 larvae (6 to 10 per well). The samples were assessed for mortality and growth inhibition in comparison to untreated samples 4 days after infestation.

[5] = test system: Spodoptera littoralis (Egyptian Cotton Leaf Worm); assay: Spodoptera littoralis (Egyptian cotton leaf worm) on cotton leaf discs; conditions: foliar, 72 h, L1 larvae, 3 days after infestation
Description: Spodoptera littoralis (Egyptian Cotton Leaf Worm)
Cotton leaf discs were placed onto agar in 24-well microtiter plates and sprayed with aqueous test solutions prepared from 10′000 ppm DMSO stock solutions. After drying the leaf discs were infested with five L1 larvae. The samples were assessed for mortality, anti-feeding effect, and growth inhibition in comparison to untreated samples 3 days after infestation. Control of Spodoptera littoralis by a test sample is given when at least one of the categories mortality, anti-feedant effect, and growth inhibition is higher than the untreated sample.

[6] = test system: Plutella xylostella (Diamond Back Moth); assay: Plutella xylostella (diamond back moth), L2 larvae on artificial diet; conditions: 120 h, 5 days after infestation, read-out: effect in at least one of the two categories (mortality or growth inhibition)
Description: (§1) Plutella xylostella (Diamond Back Moth)
24-well microtiter plates with artificial diet were treated with aqueous test solutions prepared from 10′000 ppm DMSO stock solutions by pipetting. After drying, the plates were infested with L2 larvae (10 to 15 per well). The samples were assessed for mortality and growth inhibition in comparison to untreated samples 5 days after infestation.

[7] = test system: Tetranychus urticae (Two-Spotted Spider Mite); assay: Tetranychus urticae (two-spotted spider mite) feeding/contact activity; conditions: 192 h, mixed population (mobile stages), 8 days after infestation
Description: Tetranychus urticae (Two-Spotted Spider Mite): Feeding/Contact Activity
Bean leaf discs on agar in 24-well microtiter plates were sprayed with aqueous test solutions prepared from 10′000 ppm DMSO stock solutions. After drying the leaf discs were infested with a mite population of mixed ages. The samples were assessed for mortality on mixed population (mobile stages) 8 days after infestation.

[8] = test system: Plutella xylostella (Diamond Back Moth); assay: Plutella xylostella (diamond back moth), eggs on artificial diet; conditions: 192 h, 8 days after infestation, read-out: effect in at least one of the two categories (mortality or growth inhibition)
Description: as §1
24-well microtiter plates with artificial diet were treated with aqueous test solutions prepared from 10′000 ppm DMSO stock solutions by pipetting. After drying, Plutella eggs were pipetted through a plastic stencil onto a gel blotting paper and the plate was closed with it. The samples were assessed for mortality and growth inhibition in comparison to untreated samples 8 days after infestation.

CCOC1=NOC(N(C(=O)c2ccc(C3=NO[C@@](c4cc(Cl)c(F)c(Cl)c4)(C(F)(F)F)C3)cc2C)C(=O)C2CC2)C1 (stereo partly drawn) [Compound A1, N-(cyclopropanecarbonyl)-4-[(5S)-5-(3,5-dichloro-4-fluoro-phenyl)-5-(trifluoromethyl)-4H-isoxazol-3-yl]-N-(3-ethoxy-4,5-dihydroisoxazol-5-yl)-2-methyl-benzamide]
≥ 80%: mortality at 200 ppm [1] | mortality at 200 ppm [2] | percent effect (mortality or growth inhibition) at 200 ppm [3] | percent effect (mortality or growth inhibition) at 200 ppm [4] | percent control (mortality, anti-feedant effect or growth inhibition) at 200 ppm [5] | effect (mortality or growth inhibition) at 200 ppm [6] | mortality at 200 ppm [7]

CCOC1=NOC(N(COC(=O)C(C)C)C(=O)c2ccc(C3=NO[C@@](c4cc(Cl)c(F)c(Cl)c4)(C(F)(F)F)C3)cc2C)C1 (stereo partly drawn) [Compound A2, [[4-[(5S)-5-(3,5-dichloro-4-fluoro-phenyl)-5-(trifluoromethyl)-4H-isoxazol-3-yl]-2-methyl-benzoyl]-(3-ethoxy-4,5-dihydroisoxazol-5-yl)amino]methyl 2-methylpropanoate]
≥ 80%: mortality at 200 ppm [1] | mortality at 200 ppm [2] | percent effect (mortality or growth inhibition) at 200 ppm [3] | percent effect (mortality or growth inhibition) at 200 ppm [4] | percent control (mortality, anti-feedant effect or growth inhibition) at 200 ppm [5] | effect (mortality or growth inhibition) at 200 ppm [6] | mortality at 200 ppm [7]

CCOC1=NOC(N(COC(=O)C(C)(C)C)C(=O)c2ccc(C3=NO[C@@](c4cc(Cl)c(F)c(Cl)c4)(C(F)(F)F)C3)cc2C)C1 (stereo partly drawn) [Compound A3, [[4-[(5S)-5-(3,5-dichloro-4-fluoro-phenyl)-5-(trifluoromethyl)-4H-isoxazol-3-yl]-2-methyl-benzoyl]-(3-ethoxy-4,5-dihydroisoxazol-5-yl)amino]methyl 2,2-dimethylpropanoate]
≥ 80%: mortality at 200 ppm [1] | mortality at 200 ppm [2] | percent effect (mortality or growth inhibition) at 200 ppm [3] | percent effect (mortality or growth inhibition) at 200 ppm [4] | percent control (mortality, anti-feedant effect or growth inhibition) at 200 ppm [5] | effect (mortality or growth inhibition) at 200 ppm [6] | mortality at 200 ppm [7]

CCOC1=NOC(N(CN(C)C(=O)OC)C(=O)c2ccc(C3=NO[C@@](c4cc(Cl)c(F)c(Cl)c4)(C(F)(F)F)C3)cc2C)C1 (stereo partly drawn) [Compound A4, methyl N-[[[4-[(5S)-5-(3,5-dichloro-4-fluoro-phenyl)-5-(trifluoromethyl)-4H-isoxazol-3-yl]-2-methyl-benzoyl]-(3-ethoxy-4,5-dihydroisoxazol-5-yl)amino]methyl]-N-methyl-carbamate]
≥ 80%: mortality at 200 ppm [1] | mortality at 200 ppm [2] | percent effect (mortality or growth inhibition) at 200 ppm [8] | percent effect (mortality or growth inhibition) at 200 ppm [3] | percent effect (mortality or growth inhibition) at 200 ppm [4] | percent control (mortality, anti-feedant effect or growth inhibition) at 200 ppm [5] | mortality at 200 ppm [7]

CCOC1=NOC(N(COC(=O)N(C)C)C(=O)c2ccc(C3=NO[C@@](c4cc(Cl)c(F)c(Cl)c4)(C(F)(F)F)C3)cc2C)C1 (stereo partly drawn) [Compound A5, [[4-[(5S)-5-(3,5-dichloro-4-fluoro-phenyl)-5-(trifluoromethyl)-4H-isoxazol-3-yl]-2-methyl-benzoyl]-(3-ethoxy-4,5-dihydroisoxazol-5-yl)amino]methyl N,N-dimethylcarbamate]
≥ 80%: mortality at 200 ppm [1] | percent effect (mortality or growth inhibition) at 200 ppm [8] | percent effect (mortality or growth inhibition) at 200 ppm [3] | percent effect (mortality or growth inhibition) at 200 ppm [4] | percent control (mortality, anti-feedant effect or growth inhibition) at 200 ppm [5] | mortality at 200 ppm [7]

CCOC1=NOC(N(COC(=O)OC)C(=O)c2ccc(C3=NO[C@@](c4cc(Cl)c(F)c(Cl)c4)(C(F)(F)F)C3)cc2C)C1 (stereo partly drawn) [Compound A6, [[4-[(5S)-5-(3,5-dichloro-4-fluoro-phenyl)-5-(trifluoromethyl)-4H-isoxazol-3-yl]-2-methyl-benzoyl]-(3-ethoxy-4,5-dihydroisoxazol-5-yl)amino]methyl methyl carbonate]
≥ 80%: percent effect (mortality or growth inhibition) at 200 ppm [8] | percent effect (mortality or growth inhibition) at 200 ppm [3] | percent control (mortality, anti-feedant effect or growth inhibition) at 200 ppm [5]

CCOC1=NOC(N(COC(=O)C2CC2)C(=O)c2ccc(C3=NO[C@@](c4cc(Cl)c(F)c(Cl)c4)(C(F)(F)F)C3)cc2C)C1 (stereo partly drawn) [Compound A7, [[4-[(5S)-5-(3,5-dichloro-4-fluoro-phenyl)-5-(trifluoromethyl)-4H-isoxazol-3-yl]-2-methyl-benzoyl]-(3-ethoxy-4,5-dihydroisoxazol-5-yl)amino]methyl cyclopropanecarboxylate]
≥ 80%: percent effect (mortality or growth inhibition) at 200 ppm [8] | percent effect (mortality or growth inhibition) at 200 ppm [3] | percent control (mortality, anti-feedant effect or growth inhibition) at 200 ppm [5]

— patent publication US20220033389A1, “INSECTICIDAL COMPOUNDS” (SYNGENTA CROP PROTECTION AG, priority 2018, published 2022)
